Reference: patent US4229204A, “Trifluoromethylphenyl isoxazolyl benzoates” (Monsanto Company, priority 1978, dated 1980)

How the values were obtained:
Type in all cases: in vivo
[1] = tested on: Soybean; experiment: Pre-emergent herbicidal test; conditions: 2 WAT
Experimental: (§1) The pre-emergent test was conducted as follows:
(§2) A good grade of top soil was placed in aluminum pans and compacted to a depth of three-eighths to one-half inch from the top of the pan. On the top of the soil was placed a predetermined number of seeds or vegetative propagules of various plant species which were pressed into the soil surface. The soil required to level fill the pans after seeding or adding vegetative propagules was weighed into a pan. A known amount of the active ingredient applied in a solvent or as a wettable powder and the soil were thoroughly mixed, and used as a cover layer for prepared pans.
(§3) The herbicidal rating was obtained by means of a fixed scale based on the percent injury of each plant species. The ratings are defined as follows: […]

[2] = tested on: Hemp Sesbania; experiment: Pre-emergent herbicidal test; conditions: 2 WAT
Experimental: as §1, §2, §3

[3] = tested on: Wheat; experiment: Pre-emergent herbicidal test; conditions: 2 WAT
Experimental: as §1, §2, §3

[4] = tested on: Panicum Spp.; experiment: Pre-emergent herbicidal test; conditions: 2 WAT
Experimental: as §1, §2, §3

[5] = tested on: Rice; experiment: Pre-emergent herbicidal test; conditions: 2 WAT
Experimental: as §1, §2, §3

[6] = tested on: Sorghum; experiment: Pre-emergent herbicidal test; conditions: 2 WAT
Experimental: as §1, §2, §3

[7] = tested on: Crabgrass; experiment: Pre-emergent herbicidal test; conditions: 2 WAT
Experimental: as §1, §2, §3

[8] = tested on: Wild Buckwheat; experiment: Pre-emergent herbicidal test; conditions: 2 WAT
Experimental: as §1, §2, §3

[9] = tested on: Sugarbeet; experiment: Pre-emergent herbicidal test; conditions: 2 WAT
Experimental: as §1, §2, §3

[10] = tested on: Cocklebur; experiment: Post-emergent herbicidal test; conditions: 4 WAT, 11.2 kg/h
Experimental: (§4) The post-emergent tests were conducted as follows:
(§5) The active ingredients are applied in spray form to two or three week old specimens of various plant species. The spray, a solution or wettable powder suspension containing the appropriate rate of active ingredient to give the desired test rate and a surfactant, is applied to the plants.
(§6) The compounds were also tested by utilizing the above procedure on the following plant species: […]

[11] = tested on: Smartweed; experiment: Post-emergent herbicidal test; conditions: 4 WAT, 11.2 kg/h
Experimental: as §4, §5, §6

[12] = tested on: Yellow Nutsedge; experiment: Post-emergent herbicidal test; conditions: 4 WAT, 11.2 kg/h
Experimental: as §4, §5, §6

[13] = tested on: Morningglory; experiment: Post-emergent herbicidal test; conditions: 4 WAT, 11.2 kg/h
Experimental: as §4, §5, §6

[14] = tested on: Johnsongrass; experiment: Post-emergent herbicidal test; conditions: 4 WAT, 11.2 kg/h
Experimental: as §4, §5, §6

[15] = tested on: Canada Thistle; experiment: Post-emergent herbicidal test; conditions: 4 WAT, 11.2 kg/h
Experimental: as §4, §5, §6

[16] = tested on: Velvetleaf; experiment: Post-emergent herbicidal test; conditions: 4 WAT, 11.2 kg/h
Experimental: as §4, §5, §6

[17] = tested on: Quackgrass; experiment: Post-emergent herbicidal test; conditions: 4 WAT, 11.2 kg/h
Experimental: as §4, §5, §6

[18] = tested on: Downy Brome; experiment: Post-emergent herbicidal test; conditions: 4 WAT, 11.2 kg/h
Experimental: as §4, §5, §6

[19] = tested on: Lambsquarters; experiment: Post-emergent herbicidal test; conditions: 4 WAT, 11.2 kg/h
Experimental: as §4, §5, §6

[20] = tested on: Barnyardgrass; experiment: Post-emergent herbicidal test; conditions: 4 WAT, 11.2 kg/h
Experimental: as §4, §5, §6

[21] = tested on: Cocklebur; experiment: Pre-emergent herbicidal test
Experimental: as §1, §2, §3, §6

[22] = tested on: Smartweed; experiment: Pre-emergent herbicidal test
Experimental: as §1, §2, §3, §6

[23] = tested on: Yellow Nutsedge; experiment: Pre-emergent herbicidal test; conditions: 4 WAT, 11.2 kg/h
Experimental: as §1, §2, §3, §6

[24] = tested on: Morningglory; experiment: Pre-emergent herbicidal test
Experimental: as §1, §2, §3, §6

[25] = tested on: Johnsongrass; experiment: Pre-emergent herbicidal test; conditions: 4 WAT, 11.2 kg/h
Experimental: as §1, §2, §3, §6

[26] = tested on: Canada Thistle; experiment: Pre-emergent herbicidal test; conditions: 4 WAT, 11.2 kg/h
Experimental: as §1, §2, §3, §6

[27] = tested on: Velvetleaf; experiment: Pre-emergent herbicidal test
Experimental: as §1, §2, §3, §6

[28] = tested on: Quackgrass; experiment: Pre-emergent herbicidal test; conditions: 4 WAT, 11.2 kg/h
Experimental: as §1, §2, §3, §6

[29] = tested on: Downy Brome; experiment: Pre-emergent herbicidal test
Experimental: as §1, §2, §3, §6

[30] = tested on: Lambsquarters; experiment: Pre-emergent herbicidal test
Experimental: as §1, §2, §3, §6

[31] = tested on: Barnyardgrass; experiment: Pre-emergent herbicidal test
Experimental: as §1, §2, §3, §6
Note: ranges in brackets are in %.

Compound: CCCCOC(=O)c1ccccc1-c1cc(-c2cccc(C(F)(F)F)c2)no1 [Example 6, n-Butyl 2-[3-[3-(Trifluoromethyl)Phenyl]-5-Isoxazolyl]Benzoate]
- herbicidal rating ([1]; 0.28 kg/h): 0 (0-24)
- herbicidal rating ([1]; 1.12 kg/h): 1 (25-49)
- herbicidal rating ([1]; 5.60 kg/h): 3 (75-100)
- herbicidal rating ([2]; 0.28 kg/h): 1 (25-49)
- herbicidal rating ([2]; 1.12 kg/h): 3 (75-100)
- herbicidal rating ([2]; 5.60 kg/h): 2 (50-74)
- herbicidal rating ([3]; 0.28 kg/h): 0 (0-24)
- herbicidal rating ([3]; 1.12 kg/h): 1 (25-49)
- herbicidal rating ([3]; 5.60 kg/h): 1 (25-49)
- herbicidal rating ([4]; 0.28 kg/h): 3 (75-100)
- herbicidal rating ([4]; 1.12 kg/h): 1 (25-49)
- herbicidal rating ([4]; 5.60 kg/h): 2 (50-74)
- herbicidal rating ([5]; 0.28 kg/h): 2 (50-74)
- herbicidal rating ([5]; 1.12 kg/h): 3 (75-100)
- herbicidal rating ([5]; 5.60 kg/h): 3 (75-100)
- herbicidal rating ([6]; 0.28 kg/h): 0 (0-24)
- herbicidal rating ([6]; 1.12 kg/h): 1 (25-49)
- herbicidal rating ([6]; 5.60 kg/h): 3 (75-100)
- herbicidal rating ([7]; 0.28 kg/h): 3 (75-100)
- herbicidal rating ([7]; 1.12 kg/h): 2 (50-74)
- herbicidal rating ([7]; 5.60 kg/h): 3 (75-100)
- herbicidal rating ([8]; 0.28 kg/h): 3 (75-100)
- herbicidal rating ([8]; 1.12 kg/h): 2 (50-74)
- herbicidal rating ([8]; 5.60 kg/h): 3 (75-100)
- herbicidal rating ([9]; 0.28 kg/h): 1 (25-49)
- herbicidal rating ([9]; 1.12 kg/h): 2 (50-74)
- herbicidal rating ([9]; 5.60 kg/h): 2 (50-74)
- herbicidal rating [10]: 1 (25-49)
- herbicidal rating [11]: 2 (50-74)
- herbicidal rating [12]: 0 (0-24)
- herbicidal rating [13]: 2 (50-74)
- herbicidal rating [14]: 1 (25-49)
- herbicidal rating [15]: 2 (50-74)
- herbicidal rating [16]: 1 (25-49)
- herbicidal rating [17]: 1 (25-49)
- herbicidal rating [18]: 0 (0-24)
- herbicidal rating [19]: 1 (25-49)
- herbicidal rating [20]: 2 (50-74)
- herbicidal rating ([21]; 2 WAT, 0.28 kg/h): 0 (0-24)
- herbicidal rating ([21]; 2 WAT, 1.12 kg/h): 0 (0-24)
- herbicidal rating ([21]; 2 WAT, 5.60 kg/h): 1 (25-49)
- herbicidal rating ([21]; 4 WAT, 11.2 kg/h): 1 (25-49)
- herbicidal rating ([22]; 2 WAT, 0.28 kg/h): 3 (75-100)
- herbicidal rating ([22]; 2 WAT, 1.12 kg/h): 3 (75-100)
- herbicidal rating ([22]; 2 WAT, 5.60 kg/h): 3 (75-100)
- herbicidal rating ([22]; 4 WAT, 11.2 kg/h): 3 (75-100)
- herbicidal rating [23]: 1 (25-49)
- herbicidal rating ([24]; 2 WAT, 0.28 kg/h): 1 (25-49)
- herbicidal rating ([24]; 2 WAT, 1.12 kg/h): 1 (25-49)
- herbicidal rating ([24]; 2 WAT, 5.60 kg/h): 3 (75-100)
- herbicidal rating ([24]; 4 WAT, 11.2 kg/h): 3 (75-100)
- herbicidal rating [25]: 0 (0-24)
- herbicidal rating [26]: 3 (75-100)
- herbicidal rating ([27]; 2 WAT, 0.28 kg/h): 0 (0-24)
- herbicidal rating ([27]; 2 WAT, 1.12 kg/h): 0 (0-24)
- herbicidal rating ([27]; 2 WAT, 5.60 kg/h): 2 (50-74)
- herbicidal rating ([27]; 4 WAT, 11.2 kg/h): 1 (25-49)
- herbicidal rating [28]: 2 (50-74)
- herbicidal rating ([29]; 2 WAT, 0.28 kg/h): 2 (50-74)
- herbicidal rating ([29]; 2 WAT, 1.12 kg/h): 1 (25-49)
- herbicidal rating ([29]; 2 WAT, 5.60 kg/h): 3 (75-100)
- herbicidal rating ([29]; 4 WAT, 11.2 kg/h): 3 (75-100)
- herbicidal rating ([30]; 2 WAT, 0.28 kg/h): 3 (75-100)
- herbicidal rating ([30]; 2 WAT, 1.12 kg/h): 3 (75-100)
- herbicidal rating ([30]; 2 WAT, 5.60 kg/h): 3 (75-100)
- herbicidal rating ([30]; 4 WAT, 11.2 kg/h): 2 (50-74)
- herbicidal rating ([31]; 2 WAT, 0.28 kg/h): 3 (75-100)
- herbicidal rating ([31]; 2 WAT, 1.12 kg/h): 3 (75-100)
- herbicidal rating ([31]; 2 WAT, 5.60 kg/h): 3 (75-100)
- herbicidal rating ([31]; 4 WAT, 11.2 kg/h): 3 (75-100)
